# Assay results reported in patent US9352015B2, “Antimicrobial peptides” (priority 2009, dated 2016).
# Read-outs that look alike come from different tables or passages of the source.
# How the values were obtained:
# [1] = Hemolytic activity against human erythrocytes (HC50 / MHC, microtiter dilution); assay type: cell-based; details: 1% human erythrocytes, pH 7.4, read-out: Hemolytic activity HC50
# Description: (§1) Hemoglobin release was determined spectrophotometrically at 570 nm. The hemolytic activity was determined as the peptide concentration that caused 50% hemolysis of erythrocytes after 18 h (HC50). […] HC50 was determined by a plot of peptide concentration versus percent lysis.
# human erythrocytes = test: as above; assay type: cell-based
# Description: as §1
# Pseudomonas aeruginosa = details: for MIC PAO 1: 37° C., 24 h, strain PAO1; for MIC GM (geometric mean of the MIC values): six P. aeruginosa strains; for MIC CP 204: strain CP204; for MIC M 2: strain M2; for MIC PA 14: strain PA14; for MIC PAK: strain PAK; for MIC WR 5: strain WR5
# [2] = human erythrocytes, concentration of peptide that results in 50% hemolysis after 18 hours at 37° C.
# [3] = human red blood cells, 50% hemolysis after 18 h
smiles,measurement,setting,value
"CC[C@@H](C)[C@@H](NC(=O)[C@@H](C)NC(=O)[C@@H](CCCCN)NC(=O)[C@@H](CC(C)C)NC(=O)[C@@H](C)NC(=O)[C@H](NC(=O)[C@@H](Cc1c[nH]cn1)NC(=O)[C@@H](CC(C)C)NC(=O)[C@H](NC(=O)[C@H](NC(=O)[C@@H](CCCCN)NC(=O)[C@@H](CCCCN)NC(=O)[C@@H](C)NC(=O)[C@@H](CO)NC(=O)[C@@H](CCCCN)NC(=O)[C@@H](Cc1ccccc1)NC(=O)[C@H](NC(=O)[C@@H](CCCCN)NC(=O)[C@@H](CC(C)C)NC(=O)[C@@H](Cc1ccccc1)NC(=O)[C@@H](CO)NC(=O)[C@@H](CCCCN)NC(=O)[C@@H](Cc1c[nH]c2ccccc12)NC(=O)[C@@H](CCCCN)NC(C)=O)[C@H](C)O)[C@H](C)O)C(C)C)[C@H](C)O)C(=O)N[C@H](CO)C(=O)N[C@H](CO)C(N)=O [Peptide D1, Ac-KWKSFLKTFKSAKKTVLHTALKAISS-amide]",HC50 at 18 h,[1]; [2],141 µM
same,HC50 at 18 h,[1]; [3],422 µg/mL
same,Hemolytic activity HC50,human erythrocytes; 50% hemolysis after 18 hours at 37° C.,141 µM
same,Hemolytic activity HC50,human erythrocytes; [2],140.9 µM
same,Hemolytic activity HC50,human erythrocytes; [3],421.5 µg/mL
same,Hemolytic activity HC50,"human erythrocytes; human red blood cells, 18 h",140.9 µM
same,MIC PAO 1,Pseudomonas aeruginosa; Brain Heart Infusion medium,31.3 µg/mL
same,MIC GM (geometric mean of the MIC values),Pseudomonas aeruginosa; Brain Heart Infusion medium,31.2 µg/mL
same,MIC CP 204,Pseudomonas aeruginosa; Brain Heart Infusion medium,62.5 µg/mL
same,MIC M 2,Pseudomonas aeruginosa; Brain Heart Infusion medium,62.5 µg/mL
same,MIC PA 14,Pseudomonas aeruginosa; Brain Heart Infusion medium,15.6 µg/mL
same,MIC PAK,Pseudomonas aeruginosa; Brain Heart Infusion medium,31.3 µg/mL
same,MIC WR 5,Pseudomonas aeruginosa; Brain Heart Infusion medium,15.6 µg/mL
same,MIC PAO 1,Pseudomonas aeruginosa; Mueller Hinton medium,7.8 µg/mL
same,MIC GM (geometric mean of the MIC values),Pseudomonas aeruginosa; Mueller Hinton medium,12.4 µg/mL
same,MIC CP 204,Pseudomonas aeruginosa; Mueller Hinton medium,15.6 µg/mL
same,MIC M 2,Pseudomonas aeruginosa; Mueller Hinton medium,7.8 µg/mL
same,MIC PA 14,Pseudomonas aeruginosa; Mueller Hinton medium,15.6 µg/mL
same,MIC PAK,Pseudomonas aeruginosa; Mueller Hinton medium,15.6 µg/mL
same,MIC WR 5,Pseudomonas aeruginosa; Mueller Hinton medium,15.6 µg/mL
same,Pseudomonas aeruginosa MICGM,"Pseudomonas aeruginosa; geometric mean, 6 different isolates, 24 hours at 37° C.",4.1 µM
